According to PMC2362906, “Effects of new 17α-hydroxylase/C17,20-lyase inhibitors on LNCaP prostate cancer cell growth in vitro and in vivo” (British Journal of Cancer, 1999):

Legend:
[1] = target: T1, human 17α-hydroxylase/C17,20-lyase (P450c17) expressed in LNCaP-CYP17 cells (Homo sapiens, UniProt P05093); assay: [3H]-acetic acid releasing assay (AARA) with LNCaP-CYP17 cells; type: cell-based; conditions: LNCaP-CYP17 cells, 7 μM [21-3H]17-OHP5, 16 h; mean ± s.e.m., three experiments
T1 sequence (P05093 9-508 limits assumed): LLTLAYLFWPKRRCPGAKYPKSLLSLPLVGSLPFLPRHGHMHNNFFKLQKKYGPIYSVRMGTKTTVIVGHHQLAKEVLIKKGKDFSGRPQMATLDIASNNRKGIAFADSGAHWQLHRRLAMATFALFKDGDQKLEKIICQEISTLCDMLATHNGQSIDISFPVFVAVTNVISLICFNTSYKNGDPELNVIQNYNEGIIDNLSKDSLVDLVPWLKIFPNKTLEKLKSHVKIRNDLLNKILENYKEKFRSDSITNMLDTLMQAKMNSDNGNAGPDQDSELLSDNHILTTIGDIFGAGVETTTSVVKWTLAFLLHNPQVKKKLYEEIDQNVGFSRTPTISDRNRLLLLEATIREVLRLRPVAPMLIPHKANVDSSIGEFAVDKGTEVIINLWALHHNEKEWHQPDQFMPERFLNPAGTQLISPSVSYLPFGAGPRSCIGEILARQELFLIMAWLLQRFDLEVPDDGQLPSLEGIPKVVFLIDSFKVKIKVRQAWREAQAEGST

LNCaP cells [2] = assay: Testosterone-stimulated wild-type LNCaP cell growth; type: cell-based, human; conditions: 0.1 nM testosterone, 9 days
From the text: (§1) Prostate cancer is the most common malignancy and the second leading cause of cancer-related deaths among men in the US and the UK (Shibata et al, 1998). […] Steroidal 17-hydroxylase/C17,20 -lyase (P450c17) (EC 1.14.99.0) was selected as the target enzyme for inhibition, as this is a key regulatory enzyme of androgen synthesis. P450c17 catal- yses two sequential reactions in the steroid biosynthetic pathway and converts pregnenolone and progesterone to the C-19 andro- gens, dehydroepiandrosterone and androstenedione respectively. This enzyme has an identical amino acid sequence in testicular and adrenal tissues (Chung et al, 1987). […] In order to evaluate the effectiveness of these inhibitors we developed a multi-step system, which utilized the LNCaP human prostate cancer cell line. LNCaP cells remain the only androgen receptor (AR)-positive prostate cancer cell line, that can be readily grown in tissue culture (Horoszewicz et al, 1983). These cells respond to androgens with increased cell proliferation and elevated expression of prostate specific antigen (PSA) (Berns et al, 1993). LNCaP cells at early passages are not only androgen-responsive, but also androgen- dependent (Pousette et al, 1997). This is similar to the situation in most tumours of prostatic cancer patients, which are initially highly responsive and dependent on androgens. […] Therefore, we employed LNCaP cells as a model for evaluating the effectiveness of our new inhibitors of androgen synthesis. In this study the compounds selected for evaluation were two groups of azolyl steroids. […] Here we report on the application of LNCaP-CYP17-transfected cells for determining the inhibitory potencies of the new compounds against the P450c17 enzyme. […] We designed and evaluated two groups of azolyl steroids: 5-non-competitive inhibitors (5NCIs), VN/63-1, VN/85-1, VN/87-1 and their corresponding 4 derivatives (4NCIs), VN/107-1, VN/108-1 and VN/109-1. The human P450c17 gene was transfected into LNCaP human prostate cancer cells, and the resultant LNCaP- CYP17 cells were utilized to evaluate the inhibitory potency of the new azolyl steroids. […] We further evaluated our inhibitors in male severe combined immuno- deficient mice bearing LNCaP tumour xenografts. […] We also utilized wild-type LNCaP prostatic carcinoma cells for evaluating the direct effects of new azolyl steroids on proliferation of these cells in vitro and in vivo. MATERIALS AND METHODS Materials The human prostate cancer cell line LNCaP was obtained from the American Type Culture Collection (Rockville, MD, USA). RPMI- 1640 medium, trypsin-EDTA (0.25%/0.02%), penicillin/strepto- mycin (P/S), geniticin (G418), and LipofectAMINE were from Gibco-BRL (Grand Island, NY, USA). Fetal bovine serum (FBS) was obtained from Summit Biotechnology Inc. (Fort Collins, CO, USA) and steroid-free FBS was prepared as described previously (Klus et al, 1996). Phenol red free IMEM and trypsin-versine were purchased from Biofluids Inc. (Rockville, MD, USA). Chloroform and acetonitrile were purchased from JT Baker, Inc (Phillipsburg, NJ, USA). Hydroxypropyl cellulose (HPC) was purchased from Sigma Chemical Co. (St Louis, MO, USA). The PSA enzyme- linked immunusorbent assay (ELISA) kit was from DSL Inc. (Webster, TX, USA). Matrigel was generously supplied by Dr Hynda Kleinman (NIH, Bethesda, MD, USA). Inhibitors of androgen synthesis: VN/63-1, VN/85-1, VN/87-1, VN/107-1, VN/108-1 and VN/109-1 were synthesized in our labo- ratory as previously described (Njar et al, 1998). […] Metribolone [17-methyl-3 H]-R1881 ([3 H]-R1881: specific activity 86 Ci mmol-1 ) was purchased from Dupont NEN (Boston, MA, USA).

LNCaP cells [3] = assay: DHT-stimulated wild-type LNCaP cell growth; type: cell-based, human; conditions: 0.03 nM DHT, 0.5-5.0 μM compound, 9 days
From the text: as §1

LNCaP tumour xenografts = assay: LNCaP tumour xenograft growth in male SCID mice; type: in vivo; conditions: for Effect on tumour growth (words): second experiment
From the text: as §1

serum testosterone = assay: Serum testosterone (RIA) in SCID mice; type: in vivo, male SCID mice; conditions: 28 days of treatment, 50 mg kg-1 day-1
From the text: as §1

serum DHT = assay: Serum DHT (RIA) in SCID mice; type: in vivo, male SCID mice; conditions: 28 days of treatment, 50 mg kg-1 day-1
From the text: as §1

[4] = target: human prostatic 5-reductase; parameters: method as in Njar et al, 1998; conditions: human prostatic microsomes; reported previously; ref Njar et al, 1998; cited from earlier work
serum PSA = assay: Serum PSA (ELISA) in LNCaP tumour-bearing SCID mice; type: in vivo, male SCID mice; conditions: first experiment, 50 mg kg-1 day-1, 28 days
From the text: Prostate cancer is the most common malignancy and the second leading cause of cancer-related deaths among men in the US and the UK (Shibata et al, 1998). […] Steroidal 17-hydroxylase/C17,20 -lyase (P450c17) (EC 1.14.99.0) was selected as the target enzyme for inhibition, as this is a key regulatory enzyme of androgen synthesis. P450c17 catal- yses two sequential reactions in the steroid biosynthetic pathway and converts pregnenolone and progesterone to the C-19 andro- gens, dehydroepiandrosterone and androstenedione respectively. This enzyme has an identical amino acid sequence in testicular and adrenal tissues (Chung et al, 1987). […] In order to evaluate the effectiveness of these inhibitors we developed a multi-step system, which utilized the LNCaP human prostate cancer cell line. LNCaP cells remain the only androgen receptor (AR)-positive prostate cancer cell line, that can be readily grown in tissue culture (Horoszewicz et al, 1983). These cells respond to androgens with increased cell proliferation and elevated expression of prostate specific antigen (PSA) (Berns et al, 1993). LNCaP cells at early passages are not only androgen-responsive, but also androgen- dependent (Pousette et al, 1997). This is similar to the situation in most tumours of prostatic cancer patients, which are initially highly responsive and dependent on androgens. […] Therefore, we employed LNCaP cells as a model for evaluating the effectiveness of our new inhibitors of androgen synthesis. In this study the compounds selected for evaluation were two groups of azolyl steroids. […] Here we report on the application of LNCaP-CYP17-transfected cells for determining the inhibitory potencies of the new compounds against the P450c17 enzyme. […] We designed and evaluated two groups of azolyl steroids: 5-non-competitive inhibitors (5NCIs), VN/63-1, VN/85-1, VN/87-1 and their corresponding 4 derivatives (4NCIs), VN/107-1, VN/108-1 and VN/109-1. The human P450c17 gene was transfected into LNCaP human prostate cancer cells, and the resultant LNCaP- CYP17 cells were utilized to evaluate the inhibitory potency of the new azolyl steroids. […] We further evaluated our inhibitors in male severe combined immuno- deficient mice bearing LNCaP tumour xenografts. […] We also utilized wild-type LNCaP prostatic carcinoma cells for evaluating the direct effects of new azolyl steroids on proliferation of these cells in vitro and in vivo. MATERIALS AND METHODS Materials The human prostate cancer cell line LNCaP was obtained from the American Type Culture Collection (Rockville, MD, USA). RPMI- 1640 medium, trypsin-EDTA (0.25%/0.02%), penicillin/strepto- mycin (P/S), geniticin (G418), and LipofectAMINE were from Gibco-BRL (Grand Island, NY, USA). Fetal bovine serum (FBS) was obtained from Summit Biotechnology Inc. (Fort Collins, CO, USA) and steroid-free FBS was prepared as described previously (Klus et al, 1996). Phenol red free IMEM and trypsin-versine were purchased from Biofluids Inc. (Rockville, MD, USA). Chloroform and acetonitrile were purchased from JT Baker, Inc (Phillipsburg, NJ, USA). Hydroxypropyl cellulose (HPC) was purchased from Sigma Chemical Co. (St Louis, MO, USA). The PSA enzyme- linked immunusorbent assay (ELISA) kit was from DSL Inc. (Webster, TX, USA). Matrigel was generously supplied by Dr Hynda Kleinman (NIH, Bethesda, MD, USA). […]

Row | SMILES | IC50 [1] | Effect on testosterone-stimulated cell growth (words) (LNCaP cells [2]; 0.5-5.0 μM compound) | Effect on DHT-induced cell proliferation (LNCaP cells [3]) | Effect on tumour growth (words) (LNCaP tumour xenografts; 50 mg kg-1 day-1, 28 days) | Effect on tumour growth (words) (LNCaP tumour xenografts; 50 mg kg-1 day-1, 28 days, listed as VN/107) | Serum Testosterone (serum testosterone; Table 3, second experiment, control 0.205) | Serum DHT (serum DHT; Table 3, second experiment, control 239.2) | IC50 [4] | Inhibition of LNCaP tumour growth (tumour volume) (LNCaP tumour xenografts; first experiment, 50 mg kg-1 day-1, 4 weeks) | Reduction of tumour weights compared to vehicle-treated mice (LNCaP tumour xenografts; first experiment, 50 mg kg-1 day-1, 28 days) | Serum PSA levels versus control (serum PSA) | Serum Testosterone (serum testosterone; Table 2, first experiment, control 1.043) | Serum DHT (serum DHT; Table 2, first experiment, control 243.8) | Stimulation of LNCaP cell proliferation compared to vehicle-treated control cells (LNCaP cells [2])
1 | C[C@]12CCC(=O)C=C1CC[C@@H]1[C@@H]2CC[C@]2(C)C(n3cncn3)=CC[C@@H]12 [VN/107-1] | 12.4 nM | ineffective against testosterone-stimulated cell growth | least effective inhibitors of androgen-induced cell pro- liferation | no significant effects on tumour growth or tumour weights | Neither VN/63-1, VN/107 nor ketoconazole had any appreciable effects | 0.153 ng/mL | 180.2 pg/mL | 152 nM | – | – | – | – | – | –
2 | C[C@]12CC[C@H](O)CC1=CC[C@@H]1[C@@H]2CC[C@]2(C)C(n3ccnn3)=CC[C@@H]12 [VN/87-1] | 7.97 nM | – | – | – | – | – | – | > 5000 nM | 33% | 31% | significantly lower | 0.343 ng/mL | 128.6 pg/mL | –
3 | C[C@]12CC[C@H]3[C@@H](CCC4=CC(=O)CC[C@@]43C)[C@@H]1CC[C@@H]2O [Testosterone, reference compound] | – | – | – | – | – | – | – | – | – | – | – | – | – | 5.8 fold
